Experimental data: patent US8221762B2, “Naturally processed measles virus peptides from class II HLA molecules” (priority 2004, dated 2012)

What was measured:
[1] = system: PBMC from subjects previously immunized with MMR-II vaccine; experiment: T cell proliferation assay ([3H]-thymidine, 3 days, SI cut point 3.0), Example 1; format: cell-based, human
From the text: Study participants included ninety-five healthy residents of Olmsted County, Minn., aged 11 to 18 years. […] Mononuclear leukocytes were isolated by Ficoll-Hypaque (Amersham) density gradient centrifugation.
For descriptive analyses, we used medians and ranges for continuous variables and frequencies for categorical variables. We compared cpm for MV-stimulated, MV-P1-stimulated and MV-P2-stimulated cells with unstimulated cells using Wilcoxon signed rank tests. Associations between the continuously distributed stimulation indices for MV-P1, MV-P2 peptides, and MV were determined using Spearman rank correlation coefficients. Stimulation indices were subsequently dichotomized into positive or negative using a cut point of 3.0. We then compared MV positivity with MV-P1 and MV-P2 positivity using estimates of sensitivity.

[2] = system: PBMC of subjects previously immunized with MMR-II vaccine; experiment: T cell proliferation assay ([3H]-thymidine, 4 days, SI>2 positive), Example 3; conditions: for subjects with stimulation index greater than 2 (positive lymphoproliferative response) / stimulation index, median / stimulation index, range: 131 subjects (MV-P2 130, MV-F 43); for stimulation index, median / stimulation index, range: peptides 20 μg/ml, MV 50 pfu/ml, 4 days
Description: Briefly, study participants were enrolled as part of a larger stratified random sample study to assess associations between HLA genes and immune response to measles-mumps-rubella-II (MMR-II) vaccine in healthy, school-age children and young adults (ages 12 to 18 years). To evaluate the cellular responses to measles peptides, 131 subjects were used. In addition, a random subset of 43 individuals was tested for reactivity to a control measles fusion (F) peptide. All enrolled subjects had been previously immunized with two doses of MMR-II vaccine (Merck Research, West Point, Pa.) containing the attenuated Edmonston strain of MV. All but four of these participants were Caucasian and all subjects resided in a geographic area where no wild-type MV had circulated in the community during the subjects' lifetimes.
In brief, peripheral blood mononuclear cells (PBMC) were separated from heparinized blood by Ficoll-Hypaque (Sigma, St. Louis, Mo.) density gradient centrifugation and washed in RPMI 1640 medium (Celox Laboratories, Inc., St. Paul, Minn.) supplemented with 2 mM L-glutamine, 100 μg/ml streptomycin, 100 U/ml penicillin and 8% fetal calf serum (Life Technologies, Gaithersburg, Md.). Measles virus, MV-P1, MV-P2, and MV-F specific T cell responses were measures by proliferation of PBMC (2×10^5) incubated in RPMI-1640 medium, supplemented with 5% autologous sera, with live attenuated MV (50 pfu/ml, positive control) or synthetic peptides (20 μg/ml) compared to unstimulated cell control wells. Phytohemagglutinin (PHA, 5 μg/ml) was used to assess cell vitality. Only assays in which PBMC responded to PHA were accepted. T lymphocyte proliferation was measured after 4 days by [^3H]-tritiated thymidine uptake. Cells were then harvested onto glass fiber filters, using a 96-well harvesting system (Skatron Instruments, Norway). The amount of incorporated radioactivity was determined by a liquid scintillation counter (Packard Instrument Company, Boston, Mass.). We used six replicates of counts per minute (cpm) values for unstimulated cells, and three replicates each for T cells stimulated with peptides and live measles vaccine. For each subject, median cpm were calculated for unstimulated cells, as well as for cells stimulated with MV-P1, MV-P2, MV-F and measles. Results were then expressed as antigen-specific stimulation indices (SI), defined as the ratio of the median cpm of antigen-stimulated wells to the median cpm of unstimulated control wells. […] SI>2 was arbitrarily selected prior to the study as an indication of the presence of reactive peptide specific memory T cells, and SI<2 as an indicator of the lack of memory T lymphocytes to measles-derived peptides (Pauksen, et al., Bone Marrow Transplant 20:317-323, 1997).
Three outcomes were of primary interest: T cell proliferation (as measured by stimulation indices) induced separately by live MV, the MV-P1 peptide, and the MV-P2 peptide variant. Data were descriptively summarized using frequencies and percentages for all categorical variables, and medians and ranges for all continuous variables.

[3] = system: PBMC of subjects previously immunized with MMR-II vaccine; experiment: IFN-γ supernatant cytokine response (ELISA) to measles virus and synthetic measles peptides; format: cell-based, human; conditions: for Median secretion value IFN-γ: stimulated minus control cells
Description: (§1) To evaluate the immunogenicity of measles-derived peptides, 281 of these subjects (age 12 to 18 years) were studied.
(§2) Cryopreserved PBMC were used to measure cytokine responses to measles-derived peptides. We thawed cryopreserved PBMC at a concentration of 1×10^7 cells/mL using standard protocol. The vials were rapidly thawed in a 37° C. water bath and then washed twice with 10× volume of complete RPMI 1640 media supplemented with 10% FCS at 700 rpm for 5 minutes. The final cell pellet was resuspended in complete RPMI media containing penicillin-streptomycin (100 U/mL) and supplemented with 5% normal human AB sera (Ervin Sci., Santa Ana, Calif.). For IFN-γ determination, thawed PBMC were cultured at a concentration of 2×10^5 in RPMI containing 5% normal human AB sera with or without measles peptides (10 μg/well) and MV (positive control) at a moi of 0.5 for 6 days. For IL-4 determination in cell culture supernatants, we cultured thawed PBMC at a concentration of 4×10^5 in RPMI media, supplemented with 5% normal human AB sera. Cells were cultured in the presence of 2 μg/mL of IL-4 receptor antibody (R&D Systems, Minneapolis, Minn.) (Ekerfelt, et al., J. Immunol. Methods 260:55-67, 2002) with or without synthetic measles-derived peptides (10 μg/well) and MV (positive control) at a moi of 0.1 for 6 days. Cell culture supernatants were collected in a volume of 150 μl/well for both IFN-γ and IL-4 and were frozen at […] until assayed. The culture supernatants were assayed using a standard ELISA protocol (OptiEtA Human IFN-γ and IL-4, PharMingen, San Diego, Calif.) at a dilution of 1:1 in PBS containing 10% FCS. ELISA plates (Immulon-4, DYNEX Technologies Inc, Chantilly, Va.) were coated with capture IFN-γ or IL-4 mAb and incubated overnight at 4° C. The antibody-coated plates were incubated with diluted supernatant samples for 2 hours at room temperature followed by incubation with biotinylated mouse anti-human IFN-γor IL-4 conjugated to avidin-horseradish peroxidase for 1 hour at room temperature. The absorbance of the product was read using a microplate reader (Molecular Devices, Sunnyvale, Calif.) at 450 nm. The IFN-γ and IL-4 concentration of test samples was calculated by reference to the standard curve. Unstimulated and MV-stimulated secretion measurements for IFN-γ were performed in triplicate, while all other secretion measurements for both IFN-γ and IL-4 were performed in duplicate. Individual-specific values were then summarized by taking means of the duplicate or triplicate values. Mean background levels of IFN-γ and IL-4 cytokine production in cultures not stimulated with measles peptides or MV was subtracted from the mean antigen-induced responses to produce “corrected” secretion values. Negative corrected values indicate that the unstimulated secretion levels were, on average, higher than the stimulated secretion levels.
(§3) Two criteria were established to define positive responses for secreted IFN-γ and IL-4 cytokines using ELISA.

[4] = system: PBMC of subjects previously immunized with MMR-II vaccine; experiment: IL-4 supernatant cytokine response (ELISA) to measles virus and synthetic measles peptides; format: cell-based, human; conditions: for Median secretion value IL-4: stimulated minus control cells
Description: as §1, §2, §3

[5] = 95 subjects, peptides 20 μg/ml, MV 50 PFU/well
[6] = 281 subjects, stimulated cells minus unstimulated cells

CC[C@H](C)[C@H](NC(=O)[C@H](CCC(=O)O)NC(=O)CNC(=O)CNC(=O)[C@H](CCC(=O)O)NC(=O)[C@H](C)NC(=O)[C@@H](NC(=O)[C@H](CCC(=O)O)NC(=O)[C@@H](NC(=O)[C@H](CC(=O)O)NC(=O)[C@H](CO)NC(=O)[C@H](C)N)C(C)C)[C@@H](C)O)C(=O)N[C@@H](Cc1c[nH]cn1)C(=O)N[C@@H](CCCCN)C(=O)N[C@@H](CC(C)C)C(=O)N[C@@H](CC(C)C)C(=O)N[C@@H](CCCNC(=N)N)C(=O)N[C@@H](CC(C)C)C(=O)N[C@@H](CCC(N)=O)C(=O)O [MV-P2]
subjects with stimulation index greater than 3.0 (recognized) ([1]; 95 subjects): 5% | stimulation index, median [1, 5]: 1.2 | stimulation index, range [1, 5]: 0.5-16.2 | median cpm value, lymphoproliferative assay ([1]; 95 subjects, peptides 20 μg/ml, live attenuated MV 50 PFU/well, 3 days): 359 cpm | subjects with stimulation index greater than 2 (positive lymphoproliferative response) [2]: 17% | stimulation index, median [2]: 1.2 | stimulation index, range [2]: 0.4-16.2 | MV-P1 responders who also responded to the peptide ([2]; among the 52 subjects who responded to the MV-P1 peptide): 23%

MV-F: randomly chosen 14 amino acid control peptide of the MV F protein (PLRHQATTASSTKP) [reference compound]
proliferation in immunized healthy subjects ([1]; irrelevant control peptide, data not shown): little or no proliferation | subjects with stimulation index greater than 2 (positive lymphoproliferative response) [2]: 11% | stimulation index, median [2]: 1 | stimulation index, range [2]: 0-3

SAGKVSSTLASELG [MV-N]
IFN-γ % Response (>20 pg/mL) ([3]; 281 subjects, peptides 10 μg/well, MV moi 0.5, 6 days): 15.3% | IFN-γ Median level [3, 6]: 1.9 pg/mL | Median secretion value IFN-γ ([3]; All other HLA-DRB1 alleles): 4.1 pg/mL | Median secretion value IFN-γ ([3]; HLA-DRB1 allele *0101): -1.8 pg/mL | Median secretion value IFN-γ ([3]; HLA-DRB1 allele *0102): 7.6 pg/mL | Median secretion value IFN-γ ([3]; HLA-DRB1 allele *0103): 2.4 pg/mL | Median secretion value IFN-γ ([3]; HLA-DRB1 allele *0301): 1.8 pg/mL | Median secretion value IFN-γ ([3]; HLA-DRB1 allele *0401): -0.7 pg/mL | Median secretion value IFN-γ ([3]; HLA-DRB1 allele *0402): 10.6 pg/mL | Median secretion value IFN-γ ([3]; HLA-DRB1 allele *0404): 2.8 pg/mL | Median secretion value IFN-γ ([3]; HLA-DRB1 allele *0407): 8.4 pg/mL | Median secretion value IFN-γ ([3]; HLA-DRB1 allele *0701): -1.1 pg/mL | Median secretion value IFN-γ ([3]; HLA-DRB1 allele *0801): 4.1 pg/mL | Median secretion value IFN-γ ([3]; HLA-DRB1 allele *0901): 3.1 pg/mL | Median secretion value IFN-γ ([3]; HLA-DRB1 allele *1001): -1.8 pg/mL | Median secretion value IFN-γ ([3]; HLA-DRB1 allele *1101): -4.4 pg/mL | Median secretion value IFN-γ ([3]; HLA-DRB1 allele *1103): 3.0 pg/mL | Median secretion value IFN-γ ([3]; HLA-DRB1 allele *1104): 3.1 pg/mL | Median secretion value IFN-γ ([3]; HLA-DRB1 allele *1201): -4.5 pg/mL | Median secretion value IFN-γ ([3]; HLA-DRB1 allele *1301): 2.2 pg/mL | Median secretion value IFN-γ ([3]; HLA-DRB1 allele *1302): -1.9 pg/mL | Median secretion value IFN-γ ([3]; HLA-DRB1 allele *1303): 13.1 pg/mL | Median secretion value IFN-γ ([3]; HLA-DRB1 allele *1401): 0.2 pg/mL | Median secretion value IFN-γ ([3]; HLA-DRB1 allele *1501): 4.1 pg/mL | Median secretion value IFN-γ ([3]; HLA-DRB1 allele *03011): 9.1 pg/mL | Median secretion value IFN-γ ([3]; Overall (281)): 1.9 pg/mL | MV-P IFN-γ responders who also produced IFN-γ to the peptide ([3]; among the 157 subjects who responded to the MV-P peptide): 21% | MV IFN-γ responders who also produced IFN-γ to the peptide ([3]; among the 185 subjects who responded to MV): 21.1% | IL-4 % Response (>10 pg/mL) ([4]; 281 subjects, peptides 10 μg/well, MV moi 0.1, 6 days): 23.1% | IL-4 Median level [4, 6]: 2.8 pg/mL | Median secretion value IL-4 ([4]; All other HLA-DRB1 alleles): -0.5 pg/mL | Median secretion value IL-4 ([4]; HLA-DRB1 allele *0101): 4.3 pg/mL | Median secretion value IL-4 ([4]; HLA-DRB1 allele *0102): 4.6 pg/mL | Median secretion value IL-4 ([4]; HLA-DRB1 allele *0103): 1.3 pg/mL | Median secretion value IL-4 ([4]; HLA-DRB1 allele *0301): 2.8 pg/mL | Median secretion value IL-4 ([4]; HLA-DRB1 allele *0401): 4.3 pg/mL | Median secretion value IL-4 ([4]; HLA-DRB1 allele *0402): -1.0 pg/mL | Median secretion value IL-4 ([4]; HLA-DRB1 allele *0404): 0.0 pg/mL | Median secretion value IL-4 ([4]; HLA-DRB1 allele *0407): 4.6 pg/mL | Median secretion value IL-4 ([4]; HLA-DRB1 allele *0701): 1.7 pg/mL | Median secretion value IL-4 ([4]; HLA-DRB1 allele *0801): 1.7 pg/mL | Median secretion value IL-4 ([4]; HLA-DRB1 allele *0901): -1.6 pg/mL | Median secretion value IL-4 ([4]; HLA-DRB1 allele *1001): 2.1 pg/mL | Median secretion value IL-4 ([4]; HLA-DRB1 allele *1101): 4.4 pg/mL | Median secretion value IL-4 ([4]; HLA-DRB1 allele *1103): 15.5 pg/mL | Median secretion value IL-4 ([4]; HLA-DRB1 allele *1104): 4.4 pg/mL | Median secretion value IL-4 ([4]; HLA-DRB1 allele *1201): 5.4 pg/mL | Median secretion value IL-4 ([4]; HLA-DRB1 allele *1301): 3.6 pg/mL | Median secretion value IL-4 ([4]; HLA-DRB1 allele *1302): 2.2 pg/mL | Median secretion value IL-4 ([4]; HLA-DRB1 allele *1303): -12.9 pg/mL | Median secretion value IL-4 ([4]; HLA-DRB1 allele *1401): 3.7 pg/mL | Median secretion value IL-4 ([4]; HLA-DRB1 allele *1501): 3.2 pg/mL | Median secretion value IL-4 ([4]; HLA-DRB1 allele *03011): 1.7 pg/mL | Median secretion value IL-4 ([4]; Overall (281)): 2.8 pg/mL | MV-P IL-4 responders in whom peptide-specific IL-4 responses were also detected ([4]; among the 54 subjects who responded to the MV-P peptide): half | MV IL-4 responders who also responded to the peptide ([4]; among the 143 subjects with IL-4 production from MV-stimulated PBMC): 28.7%
